Like-named read-outs stand apart in the source and are kept apart here. Peptide text beside a SMILES is read from it.
Assays:
E. coli ESBL 521/17 = test: microbe, parasite or virus in culture; format: cell-based, Escherichia coli
Description: (§1) In this regard the test plates were preincubated for 1 h at 37 °C with 0.1% bovine serum albumin (BSA) in distilled water before use. Bacteria were grown overnight at 37 °C with shaking in 2.1% Müller–Hinton broth (MHB), and then a small aliquot was transferred into the fresh portion of the same medium for another 2–3 h on the day of the experiment to provide us with the log phase bacterial suspension. Concentration of bacterial cells in suspension was evaluated based on absorbance at 620 nm and diluted down to 1 × 10^6 CFU/mL with MHB. Equal volumes of the prepared bacterial suspension in MHB and two-fold serial dilutions of the antimicrobials in 10 mM sodium phosphate (Na-P) buffer (pH 7.4) with 0.1% BSA were mixed and incubated overnight at 37 °C. The lowest concentration where no bacterial growth was observed the next day under visual examination was considered the minimal inhibitory concentration. The test was repeated at least three times, and the final MIC value was established as a median result. Each experiment was conducted in triplicates. Terasaki microplates (10 µL end volume, V-shaped bottom; Sarstedt, Nümbrecht, Germany) were used.

S. aureus 1399/17 = test: microbe, parasite or virus in culture; format: cell-based, Staphylococcus aureus
Description: as §1

P. aeruginosa MDR 522/17 = test: microbe, parasite or virus in culture; format: cell-based, Pseudomonas aeruginosa
Description: as §1

E. coli ML-35p = test: Bacterial membrane permeability assay (nitrocefin / ONPG); format: cell-based, Escherichia coli
From the text: Monitoring the ability of the test substances or their combinations to affect bacterial membranes and enhance their permeability over time was organized using a method first proposed by Prof. Lehrer’s scientific group. The idea is based on utilizing special markers that cannot spontaneously penetrate bacterial membranes until those are damaged but would be readily processed by the bacteria’s own enzymes into products of different color once they enter. Then, the product can be spectrophotometrically detected, and the dynamics of its accumulation can be associated with the scale and swiftness of the inflicted membrane impairment. The specific bacterial strain E. coli ML-35p was designed for the procedure. It is a descendant of E. coli ML-35, first identified during lac operon studies, deficient in lactopermease but constitutively expressing cytoplasmic β-galactosidase, that was modified with a plasmid vector to additionally provide it with a periplasmic β-lactamase. These modifications create the basis for the mentioned membrane damage detection approach, as there are two specifically placed enzymes, but their lactose/galactose-based substrates cannot enter bacterial cells on their own in the absence of lactopermeases.
Nitrocefin (Calbiochem-Novabiochem, San Diego, CA, USA), which can be converted by β-lactamase into a pink-colored product detectable at 486 nm once it reaches the periplasmic space, was used as a marker of the outer membrane permeability, and ONPG (o-nitrophenyl-β-D-galactoside, Sigma, St. Louis, MO, USA), producing yellow-colored o-nitrophenyl detectable at 420 nm once hydrolyzed by β-galactosidase in the bacterial cytoplasm, was likewise used as an indicator of inner membrane damage.
An overnight culture of E. coli ML-35p grown at 37 °C in 3% Trypticase soy broth (TSB) was washed of the medium twice with 10 mM Na-P buffer (pH 7.4) via a 10 min long centrifugation at 600 g and 4 °C and diluted down in the same buffer to 1 × 10^8 CFU/mL stock concentration based on the optical density (OD) of the suspension at 620 nm (the formula being concentration [CFU/mL] = OD620 × 2.5 × 10^8). The stock was preferably used immediately or kept at 4ᵒC for no more than 1 h. Experiments were carried out in 96-well clear flat-bottom plates. The 100 µL samples containing antimicrobials or their combinations in desired concentrations, 10 mM Na-P buffer (pH 7.4), 100 mM NaCl, 20 μM of nitrocefin or 2.5 mM of ONPG, and bacteria in a final concentration of 2.5 × 10^7 CFU/mL were made in duplicates. Controls included no antimicrobial substances. Bacterial suspension was the last component and was added just before the start of the measurement. OD values at the wavelengths of 420 and 486 nm were collected once per minute for 1–2 h using SpectraMax 250 Microplate Spectrophotometer (Molecular Devices, San Jose, CA, USA); samples were maintained at 37 °C with 5 s of shaking before each read.

[1] = antiseptics and surfactants, MHB, overnight 37 °C, median of 3–4 independent experiments, prontosan as polyhexanide
[2] = intact bacteria and bacteria lysed by 4×MIC of PG-1

CC[C@H](C)[C@H](NC(=O)[C@H](CCCNC(=N)N)NC(=O)[C@@H](NC(=O)[C@@H]1CCCN1C(=O)[C@@H]1CCCN1C(=O)[C@H](CCCNC(=N)N)NC(=O)[C@H](CCCNC(=N)N)NC(=O)[C@H](Cc1ccccc1)NC(=O)[C@@H]1CCCN1C(=O)[C@H](CC(C)C)NC(=O)[C@H](CCCNC(=N)N)NC(=O)[C@H](Cc1ccccc1)NC(=O)[C@@H](N)CCCNC(=N)N)[C@@H](C)CC)C(=O)N[C@@H](Cc1c[nH]cn1)C(=O)N1CCC[C@H]1C(=O)N1CCC[C@H]1C(=O)N1CCC[C@H]1C(=O)N[C@@H](Cc1ccccc1)C(=O)N[C@@H](Cc1ccc(O)cc1)C(=O)N1CCC[C@H]1C(=O)N1CCC[C@H]1C(=O)N[C@@H](Cc1ccccc1)C(=O)N[C@@H](CCCNC(=N)N)C(=O)N[C@@H](CCCNC(=N)N)C(=O)N[C@@H](Cc1ccccc1)C(=O)N[C@@H](CC(C)C)C(=O)O [ChBac3.4] (H-RFRLPFRRPPIRIHPPPFYPPFRRFL-OH; N-terminus assumed) showed an MIC (E. coli ESBL 521/17; ESBL 521/17, 1 h) of 3.1 µM, an MIC (S. aureus 1399/17; 1399/17, 1 h) of 3.1 µM and an MIC (P. aeruginosa MDR 522/17; MDR 522/17, 1 h) of 6.2 µM.
[O-][n+]1c(CO)c(CO)[n+]([O-])c2ccccc21 [Dioxydin] was tested, and the “Effect on the membranolytic action of AMPs” value (E. coli ML-35p; ¼ MIC AMP + ¼ MIC antiseptic, poviargolum: outer membrane only, data not shown) was “did not cause significant changes in the dynamics of the membranolytic action of AMPs”, the “Effect on permeability of bacterial membranes for chromogenic markers, substance alone” value (E. coli ML-35p; ¼ and ½ MIC, nitrocefin (outer) and ONPG (inner membrane), 10 mM Na-P buffer pH 7.4, 100 mM NaCl, 37 °C) was “did not significantly increase the permeability of bacterial membranes” and the MIC (E. coli ESBL 521/17; [1]) was 15.6 µg/mL. It also gave an MIC (S. aureus 1399/17; [1]) of 500 µg/mL and an MIC (P. aeruginosa MDR 522/17; [1]) of 125 µg/mL.
With CC(O)(P(=O)(O)O)P(=O)(O)O [Etidronic acid] the “Interference with ONPG processing by cytoplasmic β-galactosidase” value (E. coli ML-35p; [2]) was “fully blocked the processing of ONPG”, the “Interference with nitrocefin degradation by bacterial β-lactamase” value (E. coli ML-35p; [2]) was “prevents said enzyme from splitting nitrocefin” and the MIC (E. coli ESBL 521/17; Escherichia coli, ESBL521/17, antiseptics and surfactants, MHB, overnight 37 °C, median of 3–4 independent experiments, prontosan as polyhexanide, read-out: MIC) was 50000 µg/mL. For the same compound, the MIC (S. aureus 1399/17; Staphylococcus aureus, 1399/17, antiseptics and surfactants, MHB, overnight 37 °C, median of 3–4 independent experiments, prontosan as polyhexanide, read-out: MIC) was 50000 µg/mL and the MIC (P. aeruginosa MDR 522/17; Pseudomonas aeruginosa, MDR522/17, antiseptics and surfactants, MHB, overnight 37 °C, median of 3–4 independent experiments, prontosan as polyhexanide, read-out: MIC) was 25000 µg/mL.
Compound CC(C)C[C@H](NC(=O)[C@H](CCCNC(=N)N)NC(=O)CNC(=O)CNC(=O)[C@@H](N)CCCNC(=N)N)C(=O)N[C@H]1CSSC[C@@H](C(=O)N[C@H](C(=O)NCC(=O)N[C@@H](CCCNC(=N)N)C(N)=O)C(C)C)NC(=O)[C@H](C(C)C)NC(=O)[C@@H]2CSSC[C@H](NC(=O)[C@H](Cc3ccc(O)cc3)NC1=O)C(=O)N[C@@H](CCCNC(=N)N)C(=O)N[C@@H](CCCNC(=N)N)C(=O)N[C@@H](CCCNC(=N)N)C(=O)N[C@@H](Cc1ccccc1)C(=O)N2 [PG-1, protegrin 1] has an MIC (E. coli ESBL 521/17; ESBL 521/17, 1 h) of 0.4 µM, an MIC (S. aureus 1399/17; 1399/17, 1 h) of 0.4 µM and an MIC (P. aeruginosa MDR 522/17; MDR 522/17, 1 h) of 6.2 µM.
Cocamidopropyl betaine was tested, and the “Interference with nitrocefin degradation by bacterial β-lactamase” value (E. coli ML-35p; [2]) was “block the degradation of nitrocephin by β-lactamase”, the MIC (E. coli ESBL 521/17; [1]) was >50,000 µg/mL and the MIC (S. aureus 1399/17; [1]) was >50,000 µg/mL. For the same compound, the MIC (P. aeruginosa MDR 522/17; [1]) was >50,000 µg/mL.

Source: article PMC9863607, “Combined Use of Antimicrobial Peptides with Antiseptics against Multidrug-Resistant Bacteria: Pros and Cons” (Pharmaceutics, 2023)
